# Experimental data reported in US9938301B2, “Dihydropyrimido fused ring derivative as HBV inhibitor” (QILU PHARMACEUTICAL CO., LTD., priority 2014, dated 2018).
# pEC50: −log10 of the molar value. Where two headings read alike, the source gives them in different places.
# System: HBV DNA in HepG2.2.15 cells
# Assay: HBV in vitro assay quantitive qPCR test
# Type: cell-based
# Settings: Hepatitis B virus, HepG2.2.15 cells
# Protocol: • 1 Purpose of the test: • The content of HBV DNA in HepG2.2.15 cells was detected by real time quantitive qPCR test to evaluate an inhibitory action of the compound on HBV with an EC50 value of the compound as an indicator. • 2 Experimental materials: • 2.1 Cell lines: HepG2.2.15 Cells • HepG2.2.15 cell culture media (DMEM/F12, Invitrogen-11330057; 10% serum, Invitrogen-10099141; 100 units/ml Penicillin and 10 μg/ml Streptomycin, Invitrogen-15140122; 1% non-essential amino acid, Invitrogen-1140076; 2 mM L-GLUTAMINE, Invitrogen-25030081; 300 μg/ml Geneticin, Invitrogen-10131027 • 2.2 Reagents: • trypsin (Invitrogen-25300062) • DPBS (Hyclone-SH30028.01B) • DMSO (Sigma-D2650-100ML) • High-Throughput DNA Purification Kit (QIAamp 96 DNA Blood Kit, Qiagen-51162) • Quantitative Fast Start Universal Probe Reagent (FastStart Universal Probe Master, Roche-04914058001) • 2.3 Materials and Instruments: • 96-well cell culture plate (Corning-3599) • CO2 Incubator (HERA-CELL-240) • Optical Sealing Membrane (ABI-4311971) • Quantitative PCR 96-well Plate (Applied Biosystems-4306737) • Fluorescent Quantitative PCR Instrument (Applied Biosystems-7500 real time PCR system) • 3. Testing steps and Methods: • 3.1 HepG2.2.15 cells (4×10^4 cells/well) were planted into a 96-well plate, and at 37° C., 5% CO2 cultured overnight. • 3.2 On Day 2, the compounds were diluted in totally 8 concentrations with a dilution gradient of three times. The compounds at different concentrations were added into the culture wells in duplicate. The final concentration of DMSO in the culture media was 1%. 1 μM GLS4 was used as 100% inhibition control; 1% DMSO as 0% inhibition control. • 3.3 On Day 5, replacing with the fresh culture media containing the compound was performed. • 3.4 On Day 8, the culture media in the culture wells was collected, and DNA was extracted with a High-Throughput DNA Purification Kit (Qiagen-51162), See Specification of the product for specific steps. • 3.5 Preparation of PCR Reaction Mixture was shown in Table 1:
# • 3.6 To each well of a 96-well PCR plate was added 15 μl reaction mixture, and then to each well was added 10 μl sample DNA or HBV DNA standard. • 3.7 The reaction conditions of PCR were: heating at 95° C. for 10 minutes; then at 95° C. denaturing for 15 seconds, and at 60° C. extending for 1 minute, totally 40 cycles. • 3.8 Data Analysis: • 3.8.1 The inhibition percentage was calculated: % Inh.=[1−(DNA copy number in sample−DNA copy number in 1 μM GLS4)/(DNA copy number in DMSO control−DNA copy number in 1 μM GLS4)]×100. • 3.8.2 Calculating EC50: the concentration of the compound for 50% inhibition of HBV (EC50) was calculated by using GraphPad Prism Software. • 4 Testing Results • The testing results were shown in Table 3: […]
# [1] = qPCR assay, read-out: Concentration for 50% inhibition of HBV (EC50)value
# [2] = summary list of target compounds, Examples 166-220 (values of Table 3), read-out: BIOACTIVITY (inhibitory actions on HBV DNA, EC50)
Compound,pEC50 [1],pEC50 [2]
CCOC(=O)C1=C2CN(CCO)S(=O)(=O)CN2C(c2nccs2)=N[C@H]1c1ccc(F)cc1Cl [Example 176],5.30 to 6.00,5.30 to 6.00
COC(=O)C1=C2C[C@H](NS(=O)(=O)NC(C)(C)C)CN2C(c2nccs2)=N[C@H]1c1ccc(F)c(F)c1F [Example 210],> 7.00,> 7.00
